This is an account of results in patent publication US6984657B1, “Indole derivatives as MCP-1 receptor antagonists” (AstraZeneca AB, priority 2000, dated 2006).

Test [1] deals with THP-1 cells. In words: hMCP-1 mediated chemotaxis of THP-1 cells. The format is cell-based, human. The settings on record: 2 h at 37° C. On the procedure:
In vitro chemotaxis assays were performed using the human monocytic cell line THP-1. Cell migration through polycarbonate membranes was measured by enumerating those passing through either directly by Coulter counting or indirectly by use of a colourimetric viability assay measuring the cleavage of a tetrazolium salt by the mitochondrial respiratory chain (Scudiero D. A. et al. 1988, Cancer Res., 48, 4827-4833). […]
In an alternative form of the above assay, fluorescently tagged cells can be used in order to assist in end point detection. […] At the end of the incubation, cells are washed off the upper face of the filter with phosphate buffered saline, the filter removed from the plate and the number of cells attracted to either the underside of the filter or the lower well estimated by reading fluorescence at 485 nm excitation, 538 nm emission wavelengths (fmax, Molecular Devices). The data was input into a spreadsheet, corrected for any random migration in the absence of chemoattractant and the average fluorescence values, standard error of the mean, percentage inhibition and IC50 of compounds under test and significance tests can be calculated. […]

The next test has as its target T1, MCP-1 receptor B (CCR2B) (Homo sapiens, UniProt P41597).
T1 construct: expressed in transfected cells; host or cells: CHO-K1 clone 7 (CHO-CCR2B), membrane fragments
T1 sequence (P41597 1-360 isoform P41597-2): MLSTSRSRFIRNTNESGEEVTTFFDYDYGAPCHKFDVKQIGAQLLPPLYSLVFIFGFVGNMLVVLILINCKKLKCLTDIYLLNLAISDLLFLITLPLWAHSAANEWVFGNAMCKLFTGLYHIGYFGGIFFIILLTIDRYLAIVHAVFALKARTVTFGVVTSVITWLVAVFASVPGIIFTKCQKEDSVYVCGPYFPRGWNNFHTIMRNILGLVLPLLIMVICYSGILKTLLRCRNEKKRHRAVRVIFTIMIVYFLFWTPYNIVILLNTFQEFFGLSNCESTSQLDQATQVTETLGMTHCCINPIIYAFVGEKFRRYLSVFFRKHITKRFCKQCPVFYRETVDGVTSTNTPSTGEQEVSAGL
In words: hMCP-1 receptor binding assay (125I-MCP-1, CHO-CCR2B cell membranes). The following applies: CHO-CCR2B membrane fragments. The source says: The MCP-1 receptor B (CCR2B) cDNA was cloned by PCR from THP-1 cell RNA using suitable oligonucleotide primers based on the published MCP-1 receptor sequences (Charo et al., 1994, Proc. Natl. Acad. Sci. USA, 91, 2752). The resulting PCR products were cloned into vector PCR-II™ (In Vitrogen, San Diego, Calif.). Error free CCR2B cDNA was subcloned as a Hind III-Not I fragment into the eukaryotic expression vector pCNA3 (In Vitrogen) to generate pCDNA3/CC-CKR2A and pCDNA3/CCR2B respectively.
Linearised pCDNA3/CCR2B DNA was transfected into CHO-K1 cells by calcium phosphate precipitation (Wigler et al., 1979, Cell, 16, 777). Transfected cells were selected by the addition of Geneticin Sulphate (G418, Gibco BRL) at 1 mg/ml, 24 hours after the cells had been transfected. Preparation of RNA and Northern blotting were carried out as described previously (Needham et al., 1995, Prot. Express. Purific., 6, 134). CHO-K1 clone 7 (CHO-CCR2B) was identified as the highest MCP-1 receptor B expresser.
CHO-CCR2B cells were grown in DMEM supplemented with 10% foetal calf serum, 2 mM glutamine, 1× Non-Essential Amino Acids, 1× Hypoxanthine and Thymidine Supplement and Penicillin-Streptomycin (at 50 μg streptomycin/ml, Gibco BRL). Membrane fragments were prepared using cell lysis/differential centrifugation methods as described previously (Siciliano et al., 1990, J. Biol. Chem, 265, 19658). […]

Test [2] concerns THP-1 cells. Briefly: MCP-1 mediated calcium flux in THP-1 cells. The settings on record: stimulation of THP-1 cells with hMCP-1, FURA-2, approximate; read-out: EC50 of the rise in [Ca2+]i. The class given is cell-based, human. On the procedure: The human monocytic cell line THP-1 was grown in a synthetic cell structure medium RPMI 1640 supplemented with 10% foetal calf serum, 6 mM glutamine and Penicillin-Streptomycin (at 50 μg streptomycin/ml, Gibco BRL). THP-1 cells were washed in HBSS (lacking Ca^2+ and Mg^2+)+1 mg/ml BSA and resuspended in the same buffer at a density of 3×10^6 cells/ml. The cells were then loaded with […] FURA-2/AM for 30 min at 37° C., washed twice in HBSS, and resuspended at 1×10^6 cells/ml. THP-1 cell suspension (0.9 ml) was added to a 5 ml disposable cuvette containing a magnetic stirrer bar and 2.1 ml of prewarmed (37° C.) HBSS containing 1 mg/ml BSA, 1 mM MgCl2 and 2 mM CaCl2. The cuvette was placed in a fluorescence spectrophotometer (Perkin Elmer, Norwalk, Conn.) and preincubated for 4 min at 37° C. with stirring. Fluorescence was recorded over 70 sec and cells were stimulated by addition of hMCP-1 to the cuvette after 10 sec. [Ca^2+]i was measured by excitation at 340 nm and 380 nm alternatively and subsequent measurement of the intensity of the fluorescence emission at 510 nm. […] Rmax is the maximal fluorescence ratio determined after addition of […] Ionomycin, Rmin is the minimal ratio determined by the subsequent addition of a Ca^2+ free solution containing 5 mM EGTA, and Sf2/Sb2 is the ratio of fluorescence value at 380 nm excitation determined at Rmin and Rmax, respectively. […]
For orientation: A change in cytosolic calcium serves as a functional read-out for many receptors and channels.

pEC50, pIC50, pKd: −log10 of the molar value.

On to “MCP-1: Human Monocyte Chemoattractant Protein-1, a C—C chemokine; ligand of the CCR2 receptor”, for which, in the test on THP-1 cells [1], the “concentration of maximal cell migration (biphasic response)” value is listed as 0.5-1.0 nm. Moreover, the pIC50 – broadly, −log10 of the IC50, conventionally taken in molar units – with MCP-1 receptor B (CCR2B) (cold competition of unlabeled MCP-1 with 100 pM 125I-labeled MCP-1) was 9.96. In addition, the negative logarithm of the Kd (pKd) (in general, −log10 of the Kd, conventionally taken in molar units) in the test with MCP-1 receptor B (CCR2B) (equilibrium binding, room temperature) was 9.92. Besides, the pEC50 – broadly, the EC50 on a negative log10 scale, so that one unit is a factor of ten – in the test on THP-1 cells [2] is roughly 8.70.
